Experimental data as given in publication PMC6277767, “Broad and Region-Specific Impacts of the Synthetic Cannabinoid CP 55,940 in Adolescent and Adult Female Mouse Brains” (Frontiers in Molecular Neuroscience, 2018).

Tested on: CD1 female mouse brain lipidome
Test: Brain-region lipid levels (HPLC/MS/MS lipidomics) 2 h after single i.p. 3 mg/kg CP 55,940 vs vehicle
Assay type: in vivo
Design: N-arachidonoyl phenylalanine level, Mean / N-stearoyl tryptophan level, Mean / N-stearoyl proline level, Mean / N-stearoyl leucine level, Mean / N-stearoyl phenylalanine level, Mean / N-stearoyl serine level, Mean / N-stearoyl methionine level, Mean: unit: moles per gram
Conditions: cortex
Description: The Bloomington Institutional Animal Care and Use Committee of Indiana University reviewed and approved the animal procedures. Female mice from the CD1 strain were utilized to match our study examining THC’s effects on the brain lipidome ([Leishman et al., 2018]). Mice were given a single i.p. injection of either 3 mg/kg CP or 1:1:18 cremophor:ethanol:saline vehicle (please refer to the section “3 mg/kg CP Is Relevant for Synthetic Cannabinoid Abuse and Has Stronger Effects on the Female Mouse Brain Lipidome During Adolescence” for a justification of dose and use of female mice). Three different age groups were given injections: PND 35 and PND 50 adolescents, and adult mice (PND 113). At least eight mice in each age group received CP and at least eight received vehicle. Matching the THC study time course ([Leishman et al., 2018]), mice were sacrificed via rapid decapitation 2 h after injection. Brains were immediately removed and flash-frozen in liquid nitrogen, and then stored at -80°C until dissections were performed. Brains were dissected on an ice-cold dissection plate into the following regions: STR, HIPP, CER, THAL, CTX, HYP, MID, and STEM. These abbreviations for these brain areas will be used exclusively when discussing the results generated by these specific dissections. Each dissected area was immediately placed in liquid nitrogen and then stored at -80°C until used for lipid extraction.
Tissue extracts were performed as previously described ([Bradshaw et al., 2006]; [Stuart et al., 2013]; [Raboune et al., 2014]; [Leishman et al., 2016a],[b], [2017], [2018]). First, samples were shock frozen in liquid nitrogen, weighed, and transferred to a centrifuge tube. The mass of the largest sample was multiplied by 50 to determine how many milliliters of HPLC-grade methanol (Fisher, Fair Lawn, NJ, United States) to add. Then, samples were spiked with 500 pmol deuterium-labeled NAGly (d8NAGly; Cayman Chemical, Ann Arbor, MI, United States). Samples were placed on ice in darkness for 2 h then individually homogenized and centrifuged at 19,000 × g for 20 min at 20°C. Supernatants were diluted with HPLC water (purified in house) to make a solution of 75% water, 25% supernatant. Lipids were partially purified on C18 solid phase extraction columns (Agilent, Palo Alto, CA, United States). A series of four elutions with 1.5 mL of 60%, 75%, 85%, and 100% methanol were collected ([Stuart et al., 2013]; [Leishman et al., 2016a],[b], [2018]).
As previously described ([Bradshaw et al., 2006]; [Tan et al., 2006]; [Smoum et al., 2010]; [Stuart et al., 2013]; [Tortoriello et al., 2013]; [Raboune et al., 2014]; [Leishman et al., 2016a],[b], [2017], [2018]), samples were analyzed using an Applied Biosystems API 3000 triple quadrupole mass spectrometer with electrospray ionization (Foster City, CA, United States). Using an Agilent XDB-C18 reversed phase analytical column and optimized mobile phase gradients, 20 μL from each elution were chromatographed. Two Shimadzu 10ADvp pumps (Columbia, MD, United States) provided the pressure for gradient elution. Mobile phase A: 20% methanol, 80% water (v/v) and 1 mM ammonium acetate (Sigma, St. Louis, MO, United States). Mobile phase B: 100% methanol, 1 mM ammonium acetate. Every method run began with 0% mobile phase B, reached 100% mobile phase B flowing at 0.2 mL/min, and gradually returned to 0% mobile phase B.
This screening library will be referred to as the lipidome when discussing data from this study. HPLC/MS/MS data were analyzed using Analyst software (Applied Biosystems) ([Bradshaw et al., 2006]; [Tan et al., 2006]; [Stuart et al., 2013]; [Tortoriello et al., 2013]; [Raboune et al., 2014]; [Leishman et al., 2016a],[b], [2017], [2018]). Chromatograms (Supplementary Figure 3) were generated by determining the retention time of analytes from the analytical column with a [M-1] or [M+1] parent peak and a fragmentation peak corresponding to the programmed values. […]

[1] = PND 50, 3 mg/kg CP 55,940, ANOVA p .000
[2] = PND 50, 3 mg/kg CP 55,940, ANOVA p .002
[3] = PND 50, 3 mg/kg CP 55,940, ANOVA p .004
[4] = PND 50, 3 mg/kg CP 55,940, ANOVA p .040
[5] = PND 50 female mice, 3mg/kg CP 55,940

SMILES: CCCCCCC(C)(C)c1ccc([C@@H]2C[C@H](O)CC[C@H]2CCCO)c(O)c1 [CP 55,940]
- Arachidonic acid, Direction (relative to Veh) (PND 50, 3 mg/kg CP 55,940): ↓
- Linoleic acid, Direction (relative to Veh) (PND 50, 3 mg/kg CP 55,940): ↓
- N-arachidonoyl GABA Direction (relative to Veh) (PND 50, 3 mg/kg CP 55,940): ↓
- N-arachidonoyl alanine, Direction (relative to Veh) (PND 50, 3 mg/kg CP 55,940): ↓
- N-arachidonoyl ethanolamine, Direction (relative to Veh) (PND 50, 3 mg/kg CP 55,940): ↓
- N-arachidonoyl phenylalanine, Direction (relative to Veh) (PND 50, 3 mg/kg CP 55,940): ↓
- N-arachidonoyl taurine Direction (relative to Veh) (PND 50, 3 mg/kg CP 55,940): ↓
- N-docosahexaenoyl ethanolamine, Direction (relative to Veh) (PND 50, 3 mg/kg CP 55,940): ↓
- N-linoleoyl ethanolamine, Direction (relative to Veh) (PND 50, 3 mg/kg CP 55,940): ↓
- N-oleoyl ethanolamine, Direction (relative to Veh) (PND 50, 3 mg/kg CP 55,940): ↓
- N-oleoyl serine, Direction (relative to Veh) (PND 50, 3 mg/kg CP 55,940): ↑
- N-palmitoyl leucine, Direction (relative to Veh) (PND 50, 3 mg/kg CP 55,940): ↑
- N-palmitoyl methionine, Direction (relative to Veh) (PND 50, 3 mg/kg CP 55,940): ↑
- N-palmitoyl phenylalanine Direction (relative to Veh) (PND 50, 3 mg/kg CP 55,940): ↑
- N-palmitoyl tyrosine, Direction (relative to Veh) (PND 50, 3 mg/kg CP 55,940): ↑
- N-palmitoyl valine Direction (relative to Veh) (PND 50, 3 mg/kg CP 55,940): ↑
- N-stearoyl phenylalanine, Direction (relative to Veh) (PND 50, 3 mg/kg CP 55,940): ↑
- N-stearoyl valine Direction (relative to Veh) (PND 50, 3 mg/kg CP 55,940): ↑
- PGE2 Direction (relative to Veh) (PND 50, 3 mg/kg CP 55,940): ↓
- Linoleic acid, Magnitude (x Veh level) [1]: 0.57 x Veh level
- N-palmitoyl leucine, Magnitude (x Veh level) [1]: 1.41 x Veh level
- N-palmitoyl methionine, Magnitude (x Veh level) [1]: 1.43 x Veh level
- N-oleoyl ethanolamine, Magnitude (x Veh level) [2]: 0.65 x Veh level
- PGE2 Magnitude (x Veh level) [2]: 0.79 x Veh level
- N-arachidonoyl GABA Magnitude (x Veh level) [3]: 0.86 x Veh level
- N-arachidonoyl taurine Magnitude (x Veh level) [3]: 0.84 x Veh level
- 2-linoleoyl glycerol Magnitude (x Veh level) (PND 50, 3 mg/kg CP 55,940, ANOVA p .005): 0.67 x Veh level
- N-palmitoyl phenylalanine Magnitude (x Veh level) (PND 50, 3 mg/kg CP 55,940, ANOVA p .006): 1.39 x Veh level
- N-arachidonoyl ethanolamine, Magnitude (x Veh level) (PND 50, 3 mg/kg CP 55,940, ANOVA p .007): 0.70 x Veh level
- N-arachidonoyl alanine Magnitude (x Veh level) (PND 50, 3 mg/kg CP 55,940, ANOVA p .012): 0.75 x Veh level
- N-docosahexaenoyl ethanolamine, Magnitude (x Veh level) (PND 50, 3 mg/kg CP 55,940, ANOVA p .014): 0.72 x Veh level
- 2-oleoyl glycerol, Magnitude (x Veh level) (PND 50, 3 mg/kg CP 55,940, ANOVA p .018): 0.88 x Veh level
- N-palmitoyl valine Magnitude (x Veh level) (PND 50, 3 mg/kg CP 55,940, ANOVA p .019): 1.37 x Veh level
- N-stearoyl phenylalanine, Magnitude (x Veh level) (PND 50, 3 mg/kg CP 55,940, ANOVA p .039): 1.12 x Veh level
- Arachidonic acid, Magnitude (x Veh level) [4]: 0.76 x Veh level
- N-oleoyl serine, Magnitude (x Veh level) [4]: 1.09 x Veh level
- N-arachidonoyl phenylalanine, Magnitude (x Veh level) (PND 50, 3 mg/kg CP 55,940, ANOVA p .044): 0.78 x Veh level
- N-palmitoyl tyrosine Magnitude (x Veh level) (PND 50, 3 mg/kg CP 55,940, ANOVA p .053): 1.25 x Veh level
- N-linoleoyl ethanolamine, Magnitude (x Veh level) (PND 50, 3 mg/kg CP 55,940, ANOVA p .066): 0.69 x Veh level
- N-stearoyl valine Magnitude (x Veh level) (PND 50, 3 mg/kg CP 55,940, ANOVA p .067): 1.29 x Veh level
- 2-arachidonoyl glycerol level, Mean [5]: 2.72E-09
- 2-linoleoyl glycerol level, Mean [5]: 9.55E-11
- 2-oleoyl glycerol level, Mean [5]: 1.53E-09
- 2-palmitoyl glycerol level, Mean [5]: 5.35E-09
- 6-ketoPGF1α level, Mean [5]: 5.34E-12
- 11-OH-THC level, Mean [5]: BDL
- 11-nor-9-carboxyTHC level, Mean [5]: BDL
- Arachidonic acid level, Mean [5]: 1.42E-09
- Cannabidiol level, Mean [5]: BDL
- Linoleic acid level, Mean [5]: 9.48E-10
- N- stearoyl valine level, Mean [5]: 2.32E-13
- N-arachidonoyl GABA level, Mean [5]: 1.93E-11
- N-arachidonoyl alanine level, Mean [5]: 9.08E-13
- N-arachidonoyl dopamine level, Mean [5]: BDL
- N-arachidonoyl ethanolamine level, Mean [5]: 1.23E-11
- N-arachidonoyl glycine level, Mean [5]: 3.26E-12
- N-arachidonoyl phenylalanine level, Mean [5]: 4.3E-13
- N-arachidonoyl proline level, Mean [5]: BDL
- N-arachidonoyl serine level, Mean [5]: 1.27E-11
- N-arachidonoyl taurine level, Mean [5]: 5.99E-11
- N-arachidonoyl tryptophan level, Mean [5]: BDL
- N-arachidonoyl tyrosine level, Mean [5]: 1.87E-13
- N-docosahexaenoyl GABA level, Mean [5]: 9.29E-12
- N-docosahexaenoyl ethanolamine level, Mean [5]: 1.26E-11
- N-docosahexaenoyl glycine level, Mean [5]: 3.17E-13
- N-docosahexaenoyl leucine level, Mean [5]: 3.29E-13
- N-docosahexaenoyl methionine level, Mean [5]: BDL
- N-docosahexaenoyl phenylalanine level, Mean [5]: 4.81E-13
- N-docosahexaenoyl proline level, Mean [5]: BDL
- N-docosahexaenoyl serine level, Mean [5]: 1.83E-11
- N-docosahexaenoyl tryptophan level, Mean [5]: BDL
- N-docosahexaenoyl tyrosine level, Mean [5]: 3.22E-13
- N-docosahexaenoyl valine level, Mean [5]: PISSR
- N-linoleoyl GABA level, Mean [5]: 6.54E-12
- N-linoleoyl ethanolamine level, Mean [5]: 1.61E-11
- N-linoleoyl glycine level, Mean [5]: 1.08E-13
- N-linoleoyl leucine level, Mean [5]: 7.72E-14
- N-linoleoyl methionine level, Mean [5]: BDL
- N-linoleoyl phenylalanine level, Mean [5]: 1E-13
- N-linoleoyl proline level, Mean [5]: BDL
- N-linoleoyl serine level, Mean [5]: 6.54E-11
- N-linoleoyl tryptophan level, Mean [5]: BDL
- N-linoleoyl tyrosine level, Mean [5]: BDL
- N-linoleoyl valine level, Mean [5]: PISSR
- N-nervonoyl valine level, Mean [5]: BDL
- N-oleoyl GABA level, Mean [5]: 1.38E-11
- N-oleoyl alanine level, Mean [5]: 1.52E-12
- N-oleoyl dopamine level, Mean [5]: BDL
- N-oleoyl ethanolamine level, Mean [5]: 3.66E-11
- N-oleoyl glycine level, Mean [5]: 1.38E-12
- N-oleoyl leucine level, Mean [5]: 7.87E-13
- N-oleoyl methionine level, Mean [5]: 2.34E-13
- N-oleoyl phenylalanine level, Mean [5]: 1.02E-12
- N-oleoyl proline level, Mean [5]: BDL
- N-oleoyl serine level, Mean [5]: 1.22E-10
- N-oleoyl tryptophan level, Mean [5]: BDL
- N-oleoyl tyrosine level, Mean [5]: 3.4E-13
- N-oleoyl valine level, Mean [5]: 6.43E-14
- N-palmitoyl GABA level, Mean [5]: 1.74E-11
- N-palmitoyl alanine level, Mean [5]: 1.42E-12
- N-palmitoyl ethanolamine level, Mean [5]: 1.43E-11
- N-palmitoyl glycine level, Mean [5]: 6.08E-12
